Laboratory results: PubChem BioAssay (NCI)
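Step 1: Grow cells in 96-well plates. Step 2: Expose to compound for 48 hours at 5 concentrations. Step 3: Interpolate endpoints linearly; if unreached, use highest concentration. The concentration for 50% growth inhibition is given as GI50. At the TGI there is no net growth.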

Assays:
Experiment in all cases: DTP human tumour cell line panel, 48 h
[1] = test system: 786-0 renal
[2] = test system: A498 renal
[3] = test system: A549 NSCLC
[4] = test system: ACHN renal
[5] = test system: BT-549 breast
[6] = test system: CAKI-1 renal
[7] = test system: CCRF-CEM leukemia
[8] = test system: COLO 205 colon
[9] = test system: DU-145 prostate
[10] = test system: EKVX NSCLC
[11] = test system: HCC-2998 colon
[12] = test system: HCT-116 colon
[13] = test system: HCT-15 colon
[14] = test system: HL-60(TB) leukemia
[15] = test system: HOP-62 NSCLC
[16] = test system: HOP-92 NSCLC
[17] = test system: HS 578T breast
[18] = test system: HT29 colon
[19] = test system: IGROV1 ovarian
[20] = test system: K-562 leukemia
[21] = test system: KM12 colon
[22] = test system: LOX IMVI melanoma
[23] = test system: M14 melanoma
[24] = test system: MALME-3M melanoma
[25] = test system: MCF7 breast
[26] = test system: MDA-MB-231 breast
[27] = test system: MDA-MB-435
[28] = test system: MOLT-4 leukemia
[29] = test system: NCI-H226 lung
[30] = test system: NCI-H23 lung
[31] = test system: NCI-H460 lung
[32] = test system: NCI-H522 lung
[33] = test system: NCI/ADR-RES ovarian
[34] = test system: OVCAR-3 ovarian
[35] = test system: OVCAR-4 ovarian
[36] = test system: OVCAR-5 ovarian
[37] = test system: OVCAR-8 ovarian
[38] = test system: PC-3 prostate
[39] = test system: RPMI-8226 leukemia
[40] = test system: RXF 393 renal
[41] = test system: SF-268 CNS
[42] = test system: SF-295 CNS
[43] = test system: SF-539 CNS
[44] = test system: SK-MEL-2 melanoma
[45] = test system: SK-MEL-28 melanoma
[46] = test system: SK-MEL-5 melanoma
[47] = test system: SK-OV-3 ovarian
[48] = test system: SN12C renal
[49] = test system: SNB-19 CNS
[50] = test system: SNB-75 CNS
[51] = test system: SR leukemia
[52] = test system: SW-620 colon
[53] = test system: T-47D breast
[54] = test system: TK-10 renal
[55] = test system: U251 CNS
[56] = test system: UACC-257 melanoma
[57] = test system: UACC-62 melanoma
[58] = test system: UO-31 renal

Question: What does the source list for `COc1cc2c(O[C@@H]3OC[C@H](OC(C)=O)[C@H](OC(C)=O)[C@H]3O)c3c(c(-c4ccc5c(c4)OCO5)c2cc1OC)C(=O)OC3`?
Answer: GI50 [1]: 2.03 µM; TGI [1]: > 7.81 µM; GI50 [2]: 1.13 µM; TGI [2]: > 10 µM; GI50 [3]: 0.613 µM; TGI [3]: > 10 µM; GI50 [4]: 0.566 µM; TGI [4]: > 10 µM; GI50 [5]: 0.0722 µM; TGI [5]: > 7.76 µM; GI50 [6]: 0.0931 µM; TGI [6]: > 10 µM; GI50 [7]: 0.498 µM; TGI [7]: > 10 µM; GI50 [8]: 0.0764 µM; TGI [8]: > 10 µM; GI50 [9]: 0.754 µM; TGI [9]: > 10 µM; GI50 [10]: 0.859 µM; TGI [10]: > 10 µM; GI50 [11]: 1.56 µM; TGI [11]: > 10 µM; GI50 [12]: 0.167 µM; TGI [12]: > 10 µM; GI50 [13]: 0.725 µM; TGI [13]: > 10 µM; GI50 [14]: 0.433 µM; TGI [14]: > 10 µM; GI50 [15]: 0.797 µM; TGI [15]: > 10 µM; GI50 [16]: 0.178 µM; TGI [16]: 1.4 µM; GI50 [17]: 3.99 µM; TGI [17]: > 10 µM; GI50 [18]: 0.165 µM; TGI [18]: > 10 µM; GI50 [19]: 0.4 µM; TGI [19]: > 10 µM; GI50 [20]: 0.436 µM; TGI [20]: > 10 µM; GI50 [21]: 0.471 µM; TGI [21]: > 10 µM; GI50 [22]: 0.0233 µM; TGI [22]: 0.0908 µM; GI50 [23]: 0.192 µM; TGI [23]: 0.649 µM; GI50 [24]: 0.565 µM; TGI [24]: > 5.34 µM; GI50 [25]: 0.684 µM; TGI [25]: > 10 µM; GI50 [26]: 0.0754 µM; TGI [26]: 1.8 µM; GI50 [27]: 0.359 µM; TGI [27]: 3.06 µM; GI50 [28]: 0.437 µM; TGI [28]: > 10 µM; GI50 [29]: 0.253 µM; TGI [29]: > 10 µM; GI50 [30]: 3.24 µM; TGI [30]: > 10 µM; GI50 [31]: 0.255 µM; TGI [31]: > 10 µM; GI50 [32]: 0.252 µM; TGI [32]: > 10 µM; GI50 [33]: 1.83 µM; TGI [33]: > 10 µM; GI50 [34]: > 5.48 µM; TGI [34]: > 10 µM; GI50 [35]: > 3.12 µM; TGI [35]: > 10 µM; GI50 [36]: 0.112 µM; TGI [36]: > 10 µM; GI50 [37]: 0.189 µM; TGI [37]: > 10 µM; GI50 [38]: 0.87 µM; TGI [38]: > 10 µM; GI50 [39]: 0.0647 µM; TGI [39]: > 3.75 µM; GI50 [40]: 0.267 µM; TGI [40]: > 10 µM; GI50 [41]: 1.47 µM; TGI [41]: > 10 µM; GI50 [42]: 0.27 µM; TGI [42]: 0.923 µM; GI50 [43]: 0.437 µM; TGI [43]: > 10 µM; GI50 [44]: 1.05 µM; TGI [44]: 6.91 µM; GI50 [45]: 0.264 µM; TGI [45]: 2.87 µM; GI50 [46]: 0.0572 µM; TGI [47]: > 10 µM; GI50 [48]: 0.284 µM; TGI [48]: > 10 µM; GI50 [49]: > 9.57 µM; TGI [49]: > 10 µM; GI50 [50]: 0.274 µM; TGI [50]: > 5.89 µM; GI50 [51]: 0.059 µM; TGI [51]: > 10 µM; GI50 [52]: 0.491 µM; TGI [52]: > 10 µM; GI50 [53]: 0.115 µM; TGI [53]: > 10 µM; TGI [54]: > 10 µM; GI50 [55]: 1.16 µM; TGI [55]: > 10 µM; GI50 [56]: 0.276 µM; TGI [56]: 1.17 µM; GI50 [57]: 0.155 µM; TGI [57]: 0.517 µM; GI50 [58]: 1.78 µM; TGI [58]: 6.74 µM
